From patent US9359398B2, “Compounds for immunoproteasome inhibition” (Onyx Therapeutics, Inc., priority 2010, dated 2016)

What was measured:
immunoproteasome (L7) = immunoproteasome (L7) (Homo sapiens, UniProt P28062); test: Enzyme kinetic assay of chymotrypsin-like (CT-L) activity, isolated 20S immunoproteasome prep; format: biochemical; conditions: for EC50 ratio (B5/L7): 20S ratio: EC50 constitutive / EC50 immunoproteasome, greater than one = prefers immunoproteasome
Excerpt: (§1) This can be done using enzyme kinetic assays such as those disclosed in U.S. application Ser. No. 09/569,748, Example 2 and Stein et al., Biochem. […] A ratio of less than one denotes the molecule inhibits the CT-L activity of the constitutive proteasome better than that of the immunoproteasome. Ratios greater than one signifies the molecule inhibits chymotrypsin-like activity of the immunoproteasome better than that of the constitutive proteasome.

[1] = molecular target: constitutive proteasome (B5) (Homo sapiens, UniProt P28074); test: Enzyme kinetic assay of chymotrypsin-like (CT-L) activity, isolated 20S constitutive proteasome prep; format: biochemical; conditions: isolated 20S proteasome prep with greater than 90% constitutive proteasome subunits
Excerpt: as §1

Row | SMILES | EC50 ratio (B5/L7) (immunoproteasome (L7)) | EC50 for immunoproteasome (L7) (immunoproteasome (L7); CT-L activity, isolated 20S proteasome prep with greater than 90% immunoproteasome subunits) | EC50 for constitutive proteasome (B5) [1]
1 | CC(C)C[C@H](NC(=O)[C@H](Cc1ccccc1)NC(=O)[C@H](CC(C)C)NC(=O)[C@H](CCc1ccccc1)NC(=O)CN1CCOCC1)B(O)O | 1.10 | – | –
2 | CC(C)C[C@H](NC(=O)[C@H](Cc1ccccc1)NC(=O)c1cnccn1)C(=O)[C@@]1(C)CO1 | – | Inactive | Inactive
3 | C[C@H](NC(=O)CN1CCOCC1)C(=O)N[C@@H](Cc1ccc(O)cc1)C(=O)N[C@@H](Cc1ccccc1)C(=O)[C@@]1(C)CO1 | 17.04 | – | –
4 | C[C@H](NC(=O)CN1CCOCC1)C(=O)N[C@@H](Cc1ccc(O)cc1)C(=O)N[C@@H](Cc1ccccc1)B(O)O | 18.34 | – | –
5 | C[C@@H](NC(=O)CN1CCOCC1)C(=O)N[C@@H](Cc1c[nH]c2ccccc12)C(=O)N[C@@H](Cc1ccccc1)C(=O)[C@@]1(C)CO1 | >>1.0 | – | Inactive
6 | C[C@@H](NC(=O)CN1CCOCC1)C(=O)N[C@@H](Cc1c[nH]c2ccccc12)C(=O)N[C@@H](Cc1ccccc1)B(O)O | 6.49 | – | –
